Measurements taken from ChEMBL document CHEMBL1153116, “Bio-transformation of artemisinin using soil microbe: Direct C-acetoxylation of artemisinin at C-9 by Penicillium simplissimum” (2010).

What was measured:
Format in all cases: functional
SW-620 [1] = experiment: Antitumor activity against human SW620 cells at 50 uM after 48 hrs by Sulforhodamine assay; settings: SW-620, 48 h, read-out: GI
A549 [2] = experiment: Antitumor activity against human A549 cells at 50 uM after 48 hrs by Sulforhodamine assay; settings: A549, 48 h, read-out: GI
IGROV-1 [3] = experiment: Antitumor activity against human IGROV1 cells at 50 uM after 48 hrs by Sulforhodamine assay; settings: IGROV-1, 48 h, read-out: GI
IMR-32 [4] = experiment: Antitumor activity against human IMR32 cells at 50 uM after 48 hrs by Sulforhodamine assay; settings: IMR-32, 48 h, read-out: GI
HCT-15 [5] = experiment: Antitumor activity against human HCT15 cells at 50 uM after 48 hrs by Sulforhodamine assay; settings: HCT-15, 48 h, read-out: GI
IMR-32 [6] = experiment: Antitumor activity against human IMR32 cells at 1 uM after 48 hrs by Sulforhodamine assay; settings: IMR-32, 48 h, read-out: GI
SW-620 [7] = experiment: Antitumor activity against human SW620 cells at 20 uM after 48 hrs by Sulforhodamine assay; settings: SW-620, 48 h, read-out: GI
HCT-15 [8] = experiment: Antitumor activity against human HCT15 cells at 20 uM after 48 hrs by Sulforhodamine assay; settings: HCT-15, 48 h, read-out: GI
A549 [9] = experiment: Antitumor activity against human A549 cells at 10 uM after 48 hrs by Sulforhodamine assay; settings: A549, 48 h, read-out: GI
IGROV-1 [10] = experiment: Antitumor activity against human IGROV1 cells at 10 uM after 48 hrs by Sulforhodamine assay; settings: IGROV-1, 48 h, read-out: GI

Row | Structure (SMILES) | inhibition of growth at 50 µM (SW-620 [1]) | inhibition of growth at 50 µM (A549 [2]) | inhibition of growth at 50 µM (IGROV-1 [3]) | inhibition of growth at 50 µM (IMR-32 [4]) | inhibition of growth at 50 µM (HCT-15 [5]) | further results
1 | C[C@@H]1CC[C@H]2[C@@H](C)C(=O)O[C@@H]3O[C@@]4(C)OO[C@@]32[C@H]1C[C@H]4O | 0% | 18% | 3% | 20% | 28% | 
2 | CC(=O)O[C@H]1C[C@H]2[C@H](C)CC[C@H]3[C@@H](C)C(=O)O[C@@H]4O[C@@]1(C)OO[C@]423 | 0% | 28% | 10% | 31% | 32% | 
3 | C[C@@H]1CC[C@H]2[C@@H](C)C(=O)O[C@@H]3O[C@@]4(C)CC[C@@H]1[C@]32OO4 [ARTEMISININ] | 35% | 29% | 26% | 23% | 31% | 
4 | COc1cccc2c1C(=O)c1c(O)c3c(c(O)c1C2=O)C[C@@](O)(C(=O)CO)C[C@@H]3O[C@H]1C[C@H](N)[C@H](O)[C@H](C)O1 [DOXORUBICIN] |  |  |  |  |  | inhibition of growth at 1 µM (IMR-32 [6]): 72%
5 | O=c1[nH]cc(F)c(=O)[nH]1 [FLUOROURACIL] |  |  |  |  |  | inhibition of growth at 20 µM (SW-620 [7]): 54%; inhibition of growth at 20 µM (HCT-15 [8]): 49%
6 | CC(=O)O[C@H]1C(=O)[C@@]2(C)[C@H]([C@H](OC(=O)c3ccccc3)[C@]3(O)C[C@H](OC(=O)[C@H](O)[C@@H](NC(=O)c4ccccc4)c4ccccc4)C(C)=C1C3(C)C)[C@]1(OC(C)=O)CO[C@@H]1C[C@@H]2O [PACLITAXEL] |  |  |  |  |  | inhibition of growth at 10 µM (A549 [9]): 52%; inhibition of growth at 10 µM (IGROV-1 [10]): 56%
